This assay is filed under the species Rattus norvegicus. Kind of assay: Effective concentration against cholesterol-lowering agent in OVX rats. It is filed as functional.

In the case of `C[C@H]1CCC[C@H](O)CCCCCc2cc(O)cc(O)c2C(=O)O1` [ZERANOL], the ED50 (in general, the dose at which the effect has come halfway, by size or by number of responders) came to 0.2 mg/kg.

(Values after ChEMBL document CHEMBL1132141, “Emerging therapies for the prevention or treatment of postmenopausal osteoporosis” (1999).)
